30 compounds from patent US11814376B2, “Hepatitis b core protein modulators” (Assembly Biosciences, Inc., priority 2015, dated 2023) can be followed below.

The subject of data set [1] is HBV viral load in AD38 cells. Put plainly: Viral load production in AD38 cells, quantitative PCR of the core sequence in supernatant. The format is cell-based. The following applies: Hepatitis B virus, 144 h, 10 μM compound, 6 days at 37° C., supernatant qPCR, relative to DMSO control; read-out: AD38 Viral Load (%) (VL with cmpd/VL in DMSO control) at 10 μM. Background: In qPCR the cycle at which signal appears reflects the starting amount.

Data set [2] deals with AD38 cells. Put plainly: Viability of AD38 cells (Promega CellTiter-Glo). Type of data set: cell-based. The following applies: 10 μM compound, 6 days, CellTiter-Glo luminescence normalized to DMSO control (100%). An outline of the steps: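 After 6 days of compound exposure at 37° C (compound added as 10× solution in 10% DMSO; 50,000 cells/well, collagen-coated), medium was replaced with tetracycline-free DMEM/F12, 2% FBS, 1% DMSO. CellTiter-Glo luminescence was then recorded and normalized to DMSO-treated wells as 100% viability.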
(In general: In ATP-based viability assays light output follows the ATP content of the culture.)

In the case of `CN(C)CCCSc1ccc(-c2ncc(CNC(=O)c3ccc4c(c3)NC(=O)c3ccccc3S4(=O)=O)s2)cc1` [compound 11006, N-((2-(4-((3-(dimethylamino)propyl)thio)phenyl)thiazol-5-yl)methyl)-11-oxo-10, 11-dihydrodibenzo [b, f] [1, 4] thiazepine-8-carboxamide 5,5-dioxide], the activity at 10 µM in data set [1] came out at 1.3%. Besides, the “AD38 Viability Normalized Result (cmpd/DMSO %) at 10 μM” value in data set [2] is 97%.
The corresponding values for `Cl.NCCCSc1ccc(-c2ncc(CNC(=O)c3ccc4c(c3)NC(=O)c3ccccc3S4(=O)=O)s2)cc1` [compound 11007, N-((2-(4-((3-aminopropyl)thio)phenyl)thiazol-5-yl)methyl)-11-oxo-10, 11-dihydrodibenzo [b, f] [1, 4] thiazepine-8-carboxamide 5,5-dioxide hydrochloride] are 2% and 101%.
In the same order, the values of `CN(C)CCCOc1ccc(-c2ncc(CNC(=O)c3ccc4c(c3)NC(=O)c3ccccc3S4(=O)=O)s2)nc1` [compound 11011, N-((2-(5-(3-(dimethylamino)propoxy)pyridin-2-yl)thiazol-5-yl)methyl)-11-oxo-10, 11-dihydrodibenzo [b, f] [1, 4] thiazepine-8-carboxamide 5,5-dioxide] are 5.3% and 98%.
Consider `Cl.O=C(NCc1cnc(-c2ccc(C(=O)N3CCNCC3)cc2)s1)c1ccc2c(c1)NC(=O)c1ccccc1S2(=O)=O` [compound 11016, 11-oxo-N-((2-(4-(piperazine-1-carbonyl)phenyl)thiazol-5-yl)methyl)-10, 11-dihydrodibenzo [b, f] [1, 4] thiazepine-8-carboxamide 5,5-dioxide hydrochloride], for which the activity at 10 µM in data set [1] is 38.8%. Moreover, the “AD38 Viability Normalized Result (cmpd/DMSO %) at 10 μM” value in data set [2] is 106%.
`Cl.NCCNC(=O)c1ccc(-c2ncc(CNC(=O)c3ccc4c(c3)NC(=O)c3ccccc3S4(=O)=O)s2)cc1` [compound 11017, N-((2-(4-((2-aminoethyl)carbamoyl)phenyl)thiazol-5-yl)methyl)-11-oxo-10, 11-dihydrodibenzo [b, f] [1, 4] thiazepine-8-carboxamide 5,5-dioxide hydrochloride]: the activity at 10 µM in data set [1] was found to be 21%. The “AD38 Viability Normalized Result (cmpd/DMSO %) at 10 μM” value in data set [2] was 86%.
As for `Cl.O=C(NCc1cnc(-c2ccc(N3CCNCC3)cc2)s1)c1ccc2c(c1)NC(=O)c1ccccc1S2(=O)=O` [compound 11018, 11-oxo-N-((2-(4-(piperazin-1-yl)phenyl)thiazol-5-yl)methyl)-10, 11-dihydrodibenzo [b, f] [1, 4] thiazepine-8-carboxamide 5,5-dioxide hydrochloride], the activity at 10 µM in data set [1] was found to be 3.9%. Besides, the “AD38 Viability Normalized Result (cmpd/DMSO %) at 10 μM” value in data set [2] is on record as 98%.
In the same order, the values of `Cl.O=C(NCc1cnc(-c2ccc(N3CCNCC3)nc2)s1)c1ccc2c(c1)NC(=O)c1ccccc1S2(=O)=O` [compound 11019, 11-oxo-N-((2-(6-(piperazin-1-yl)pyridin-3-yl)thiazol-5-yl)methyl)-10, 11-dihydrodibenzo [b, f] [1, 4] thiazepine-8-carboxamide 5,5-dioxide hydrochloride] are 14.3% and 93%.
The corresponding values for `O=C(NCc1cnc(-c2ccc(OC3CCNCC3)cc2)s1)c1ccc2c(c1)NC(=O)c1ccccc1S2(=O)=O` [compound 11026, 11-oxo-N-((2-(4-(piperidin-4-yloxy)phenyl)thiazol-5-yl)methyl)-10, 11-dihydrodibenzo [b, f] [1, 4] thiazepine-8-carboxamide 5,5-dioxide] are 5.5% and 100%.
In the same order, the values of `O=C(NCc1cnc(-c2ccc(O[C@H]3CCNC3)cc2)s1)c1ccc2c(c1)NC(=O)c1ccccc1S2(=O)=O.O=C(O)C(F)(F)F` [compound 11028, (S)-11-oxo-N-((2-(4-(pyrrolidin-3-yloxy)phenyl)thiazol-5-yl)methyl)-10, 11-dihydrodibenzo [b, f] [1, 4] thiazepine-8-carboxamide 5,5-dioxide TFA salt] are 5.2% and 92%.
Take `Cl.O=C(NCc1cnc(-c2ccc(OC[C@@H]3CCCN3)cc2)s1)c1ccc2c(c1)NC(=O)c1ccccc1S2(=O)=O` [compound 11029, (S)-11-oxo-N-((2-(4-(pyrrolidin-2-ylmethoxy)phenyl)thiazol-5-yl)methyl)-10, 11-dihydrodibenzo [b, f] [1, 4] thiazepine-8-carboxamide 5,5-dioxide hydrochloride]: the activity at 10 µM in data set [1] worked out at 5.3%. For the same compound, the “AD38 Viability Normalized Result (cmpd/DMSO %) at 10 μM” value in data set [2] was 105%.
For `NCCCS(=O)(=O)c1ccc(-c2ncc(CNC(=O)c3ccc4c(c3)NC(=O)c3ccccc3S4(=O)=O)s2)cc1.O=C(O)C(F)(F)F` [compound 11032, N-((2-(4-((3-aminopropyl)sulfonyl)phenyl)thiazol-5-yl)methyl)-11-oxo-10, 11-dihydrodibenzo [b, f] [1, 4] thiazepine-8-carboxamide 5,5-dioxide TFA salt], the activity at 10 µM in data set [1] worked out at 51.7%. Moreover, the “AD38 Viability Normalized Result (cmpd/DMSO %) at 10 μM” value in data set [2] was found to be 103%.
With `CN(C)CCCS(=O)(=O)c1ccc(-c2ncc(CNC(=O)c3ccc4c(c3)NC(=O)c3ccccc3S4(=O)=O)s2)cc1.O=C(O)C(F)(F)F` [compound 11033, N-((2-(4-((3-(dimethylamino)propyl)sulfonyl)phenyl)thiazol-5-yl)methyl)-11-oxo-10, 11-dihydrodibenzo [b, f] [1, 4] thiazepine-8-carboxamide 5,5-dioxide TFA salt], in data set [1], the activity at 10 µM was found to be 17.1%. Also, the “AD38 Viability Normalized Result (cmpd/DMSO %) at 10 μM” value in data set [2] was determined as 95%.
The corresponding values for `O=C(NCc1cnc(-n2cc(F)cn2)s1)c1ccc2c(c1)NC(=O)c1ccccc1S2(=O)=O` [compound 11038] are 2% and 99%.
In the same order, the values of `O=C(NCc1cnc(-n2cc(C(F)(F)F)cn2)s1)c1ccc2c(c1)NC(=O)c1ccccc1S2(=O)=O` [compound 11039] are 1.9% and 92%.
The corresponding values for `O=C(NCc1cnc(-c2ccc(F)cn2)s1)c1ccc2c(c1)NC(=O)c1ccccc1S2(=O)=O` [compound 11040] are 1.9% and 104%.
For the compound `CCc1cc2c(cc1C(=O)NCc1cnc(C(F)(F)F)s1)NC(=O)c1ccccc1S2(=O)=O` [compound 11041], in data set [1], the activity at 10 µM was 47.4%. Besides, the “AD38 Viability Normalized Result (cmpd/DMSO %) at 10 μM” value in data set [2] is on record as 94%.
The corresponding values for `CCc1cc2c(cc1C(=O)NCc1cnc(-c3ccc(C#N)cc3F)s1)NC(=O)c1ccccc1S2(=O)=O` [compound 11042] are 0.8% and 109%.
In the same order, the values of `CC(C)CN1c2ccc(C(=O)NCc3cnc(C(F)(F)F)s3)cc2NC(=O)c2ccccc21` [compound 11043] are 12% and 100%.
In the same order, the values of `CC(C)CN1c2ccc(C(=O)NCc3cnc(-c4ccc(C#N)cc4F)s3)cc2NC(=O)c2ccccc21` [compound 11044] are 5.1% and 124%.
Turning to `O=C(NCc1cnc(-n2ccc(F)n2)s1)c1ccc2c(c1)NC(=O)c1ccccc1S2(=O)=O` [compound 11045], the activity at 10 µM in data set [1] was 0.6%. In addition, the “AD38 Viability Normalized Result (cmpd/DMSO %) at 10 μM” value in data set [2] was 94%.
In the same order, the values of `Cn1ccc(-c2ncc(CNC(=O)c3ccc4c(c3)NC(=O)c3ccccc3S4(=O)=O)s2)n1` [compound 11046] are 0.9% and 100%.
In the same order, the values of `O=C(NCc1cnc(-n2ccnn2)s1)c1ccc2c(c1)NC(=O)c1ccccc1S2(=O)=O` [compound 11047] are 1.4% and 96%.
The corresponding values for `O=C(NCc1cnc(-n2nccn2)s1)c1ccc2c(c1)NC(=O)c1ccccc1S2(=O)=O` [compound 11048] are 1.2% and 103%.
With `O=C(NCc1cnc(-c2cscn2)s1)c1ccc2c(c1)NC(=O)c1ccccc1S2(=O)=O` [compound 11049], the activity at 10 µM in data set [1] worked out at 0.8%. Moreover, the “AD38 Viability Normalized Result (cmpd/DMSO %) at 10 μM” value in data set [2] is given as 89%.
In the same order, the values of `O=C(NCc1cnc(-c2cc(F)ccn2)s1)c1ccc2c(c1)NC(=O)c1ccccc1S2(=O)=O` [compound 11050] are 0.7% and 96%.
The corresponding values for `N#Cc1ccnc(-c2ncc(CNC(=O)c3ccc4c(c3)NC(=O)c3ccccc3S4(=O)=O)s2)c1` [compound 11051] are 1.2% and 103%.
In the same order, the values of `CCN(CC)CCCCc1ccc(-c2ncc(CNC(=O)c3ccc4c(c3)NC(=O)c3ccccc3S4(=O)=O)s2)cc1` [compound 11053] are 3.6% and 104%.
Turning to `CC(C)(C)NCCCCc1ccc(-c2ncc(CNC(=O)c3ccc4c(c3)NC(=O)c3ccccc3S4(=O)=O)s2)cc1` [compound 11054], the activity at 10 µM in data set [1] was found to be 14.1%. For the same compound, the “AD38 Viability Normalized Result (cmpd/DMSO %) at 10 μM” value in data set [2] came out at 102%.
The corresponding values for `O=C(NCc1cnc(-c2ccc(CCCCN3CCCCC3)cc2)s1)c1ccc2c(c1)NC(=O)c1ccccc1S2(=O)=O` [compound 11055] are 4% and 94%.
The corresponding values for `O=C(NCc1cnc(-c2ccc(CCCCN3CCOCC3)cc2)s1)c1ccc2c(c1)NC(=O)c1ccccc1S2(=O)=O` [compound 11056] are 0.8% and 96%.
